Reference: paper PMC7490411 (Signal Transduction and Targeted Therapy, 2020)

Legend:
[1] = system: PAK3; assay: KINOMEscan; type: binding; settings: 1000 nM
[2] = system: TRKA; assay: KINOMEscan; type: binding; settings: 1000 nM
[3] = system: ZAP70; assay: KINOMEscan; type: binding; settings: 1000 nM
[4] = system: QSK; assay: KINOMEscan; type: binding; settings: 1000 nM
[5] = system: HPK1; assay: KINOMEscan; type: binding; settings: 1000 nM
[6] = system: PIM3; assay: KINOMEscan; type: binding; settings: 1000 nM
[7] = system: PRKCH; assay: KINOMEscan; type: binding; settings: 1000 nM
[8] = system: FLT3(ITD,D835V); assay: KINOMEscan; type: binding; settings: 1000 nM
[9] = system: MTOR; assay: KINOMEscan; type: binding; settings: 1000 nM
[10] = system: NDR2; assay: KINOMEscan; type: binding; settings: 1000 nM
[11] = system: SRPK3; assay: KINOMEscan; type: binding; settings: 1000 nM
[12] = system: TSSK3; assay: KINOMEscan; type: binding; settings: 1000 nM
[13] = system: NEK11; assay: KINOMEscan; type: binding; settings: 1000 nM
[14] = system: ERBB3; assay: KINOMEscan; type: binding; settings: 1000 nM
[15] = system: NEK3; assay: KINOMEscan; type: binding; settings: 1000 nM
[16] = system: RET; assay: KINOMEscan; type: binding; settings: 1000 nM
[17] = system: TRKB; assay: KINOMEscan; type: binding; settings: 1000 nM
[18] = system: PIK3C2G; assay: KINOMEscan; type: binding; settings: 1000 nM
[19] = system: p38-alpha; assay: KINOMEscan; type: binding; settings: 1000 nM
[20] = system: HCK; assay: KINOMEscan; type: binding; settings: 1000 nM
[21] = system: BMPR1A; assay: KINOMEscan; type: binding; settings: 1000 nM
[22] = system: MST4; assay: KINOMEscan; type: binding; settings: 1000 nM
[23] = system: ADCK3; assay: KINOMEscan; type: binding; settings: 1000 nM
[24] = system: BMPR2; assay: KINOMEscan; type: binding; settings: 1000 nM
[25] = system: ABL1(F317L)-nonphosphorylated; assay: KINOMEscan; type: binding; settings: 1000 nM
[26] = system: NEK1; assay: KINOMEscan; type: binding; settings: 1000 nM
[27] = system: ADCK4; assay: KINOMEscan; type: binding; settings: 1000 nM
[28] = system: PKN2; assay: KINOMEscan; type: binding; settings: 1000 nM
[29] = system: EGFR(G719C); assay: KINOMEscan; type: binding; settings: 1000 nM
[30] = system: PAK2; assay: KINOMEscan; type: binding; settings: 1000 nM
[31] = system: TGFBR2; assay: KINOMEscan; type: binding; settings: 1000 nM
[32] = system: MAP3K15; assay: KINOMEscan; type: binding; settings: 1000 nM
[33] = system: MELK; assay: KINOMEscan; type: binding; settings: 1000 nM
[34] = system: ACVR2A; assay: KINOMEscan; type: binding; settings: 1000 nM
[35] = system: PRKCD; assay: KINOMEscan; type: binding; settings: 1000 nM
[36] = system: REC-1; assay: anti-proliferative CellTiter-Glo assay; type: cell-based; settings: Homo sapiens, Rec1; REC-1, 72 h
Method: (§1) Cell viability was measured using the CellTiter–Glo assay (Promega, USA) according to the manufacturer’s instructions, and […] was measured in a Bio-red Microplate reader (Bio-Red, USA).

[37] = system: SU-DHL-6; assay: anti-proliferative CellTiter-Glo assay; type: cell-based; settings: Homo sapiens, SU-DHL-6, 72 h
Method: as §1

[38] = system: Raji; assay: anti-proliferative CellTiter-Glo assay; type: cell-based; settings: Homo sapiens, 72 h
Method: as §1

[39] = system: JEKO-1; assay: anti-proliferative CellTiter-Glo assay; type: cell-based; settings: Homo sapiens, JeKo-1, 72 h
Method: as §1

[40] = system: DOHH2; assay: anti-proliferative CellTiter-Glo assay; type: cell-based; settings: Homo sapiens, DOHH-2; DOHH2, 72 h
Method: as §1

[41] = system: Pfeiffer; assay: anti-proliferative CellTiter-Glo assay; type: cell-based; settings: Homo sapiens, 72 h
Method: as §1

[42] = system: TMD8; assay: anti-proliferative CellTiter-Glo assay; type: cell-based; settings: Homo sapiens, TMD8, 72 h
Method: as §1

[43] = system: SU-DHL-2; assay: anti-proliferative CellTiter-Glo assay; type: cell-based; settings: Homo sapiens, SU-DHL-2, 72 h
Method: as §1

[44] = system: Ramos; assay: anti-proliferative CellTiter-Glo assay; type: cell-based; settings: Homo sapiens, 72 h
Method: as §1

[45] = system: U2932; assay: anti-proliferative CellTiter-Glo assay; type: cell-based; settings: Homo sapiens, U2932, 72 h
Method: as §1

[46] = system: WSU-DLCL2; assay: anti-proliferative CellTiter-Glo assay; type: cell-based; settings: Homo sapiens, WSUDLCL2; WSU-DLCL2, 72 h
Method: as §1

[47] = system: AURKB; assay: KINOMEscan; type: binding; settings: 1000 nM
[48] = system: CAMK1G; assay: KINOMEscan; type: binding; settings: 1000 nM
[49] = system: PDGFRA; assay: KINOMEscan; type: binding; settings: 1000 nM
[50] = system: ACVRL1; assay: KINOMEscan; type: binding; settings: 1000 nM
[51] = system: PFCDPK1(P.falciparum); assay: KINOMEscan; type: binding; settings: 1000 nM
[52] = system: LIMK2; assay: KINOMEscan; type: binding; settings: 1000 nM
[53] = system: PIM1; assay: KINOMEscan; type: binding; settings: 1000 nM
[54] = system: TAOK3; assay: KINOMEscan; type: binding; settings: 1000 nM
[55] = system: PKN1; assay: KINOMEscan; type: binding; settings: 1000 nM
[56] = system: VPS34; assay: KINOMEscan; type: binding; settings: 1000 nM

C=CC(=O)Nc1cc(Nc2cc(-c3cccc(NC(=O)c4cc5c(s4)CCCC5)c3C)cn(C)c2=O)ccc1N1CCN(CC)CC1 [CHMFL-BTK-85]
Percent Control [1]: 100%
Percent Control [2]: 86%
Percent Control [3]: 100%
Percent Control [4]: 100%
Percent Control [5]: 85%
Percent Control [6]: 80%
Percent Control [7]: 93%
Percent Control [8]: 100%
Percent Control [9]: 100%
Percent Control [10]: 34%
Percent Control [11]: 83%
Percent Control [12]: 100%
Percent Control [13]: 100%
Percent Control [14]: 95%
Percent Control [15]: 80%
Percent Control [16]: 100%
Percent Control [17]: 100%
Percent Control [18]: 63%
Percent Control [19]: 93%
Percent Control [20]: 100%
Percent Control [21]: 97%
Percent Control [22]: 100%
Percent Control [23]: 78%
Percent Control [24]: 100%
Percent Control [25]: 100%
Percent Control [26]: 95%
Percent Control [27]: 100%
Percent Control [28]: 81%
Percent Control [29]: 81%
Percent Control [30]: 100%
Percent Control [31]: 100%
Percent Control [32]: 96%
Percent Control [33]: 99%
Percent Control [34]: 97%
Percent Control [35]: 77%
GI50 [36]: 28 ± 7 nM
GI50 [37]: 970 ± 220 nM
GI50 [38]: 1500 ± 58 nM
GI50 [39]: 1100 ± 240 nM
GI50 [40]: 700 ± 150 nM
GI50 [41]: 290 ± 140 nM
GI50 [42]: 17 ± 4 nM
GI50 [43]: 570 ± 350 nM
GI50 [44]: 1300 ± 100 nM
GI50 [45]: 800 ± 96 nM
GI50 [46]: 1400 ± 210 nM
Percent Control [47]: 100%
Percent Control [48]: 94%
Percent Control [49]: 100%
Percent Control [50]: 100%
Percent Control [51]: 100%
Percent Control [52]: 100%
Percent Control [53]: 95%
Percent Control [54]: 100%
Percent Control [55]: 70%
Percent Control [56]: 100%
